IC50 data for 21 molecules are collected here from patent US20120149700A1, “2-CYANOPHENYL FUSED HETEROCYCLIC COMPOUNDS, AND COMPOSTIONS AND USES THEREOF” (priority 2007, published 2012).

One assay deals with T1, P2X3 (Homo sapiens, UniProt P56373).
T1 construct: expressed in transfected cells; host or cells: e.g. HEK293 or 1321N1
T1 sequence (P56373 1-397): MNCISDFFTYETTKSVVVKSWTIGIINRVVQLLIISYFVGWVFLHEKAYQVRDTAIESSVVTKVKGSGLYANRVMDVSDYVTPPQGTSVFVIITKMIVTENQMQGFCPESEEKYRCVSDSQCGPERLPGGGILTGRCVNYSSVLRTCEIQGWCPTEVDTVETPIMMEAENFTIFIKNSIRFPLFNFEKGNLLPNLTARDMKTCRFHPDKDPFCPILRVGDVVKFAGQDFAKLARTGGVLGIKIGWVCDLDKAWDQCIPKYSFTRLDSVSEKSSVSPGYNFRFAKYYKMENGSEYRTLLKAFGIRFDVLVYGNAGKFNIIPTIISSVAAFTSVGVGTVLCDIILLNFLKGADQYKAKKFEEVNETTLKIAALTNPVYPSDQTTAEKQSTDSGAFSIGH
Kind of assay: Calcium uptake assay (P2X antagonist assay, inhibition of agonist-induced calcium influx), P2X3. Type of assay: cell-based. The conditions noted are these: inhibition of agonist-induced calcium influx in cells expressing the receptor. An excerpt: (§1) The human P2X2/3 chimera clone is created as described by Neelands et al, and then cloned into an expression vector as above. Receptors are expressed in cells (e.g., HEK293 or 1321N1 (obtained from the ECACC)) via transient transfection using standard lipid mediated transfection, or by creation of stable transfectants for each receptor. For expression of the P2X2/3 heteromeric receptor, the P2X3 expression vector is stably transfected into a cell line already stably expressing P2X2. P2X2/3 heteromer function is isolated using pharmacological methods. Cell lines are maintained in DMEM+5% Glutamax, the appropriate level of selective antibiotic, and 10% heat inactivated FBS.
(§2) Functional activity of compounds at the P2X receptor is determined by measuring their ability to inhibit agonist-induced calcium influx. Compounds are tested for antagonist activity against the P2X2/3 chimera, the P2X3 homomer, or the P2X2/3 heteromer. At the start of each screening day, the agonist EC50 is determined. Compound % inhibition or IC50s are subsequently determined using a pre-determined agonist concentration (EC50-90 depending on cell line) as a stimulus. The agonists used are αβMeATP, ATP, or other ATP analogs. Compounds may be tested at concentrations ranging from 1 pM to 10 μM.
(§3) To test for antagonist activity, cells expressing the appropriate receptor are seeded onto 96 or 384 well plates 18-24 hours prior to assay. […] Plates are incubated at 37° C. and then equilibrated at room temperature. Antagonism of agonist-induced calcium influx is measured using a fluorescent imaging plate reader (e.g. FLIPR^TETRA, Molecular Devices, Sunnyvale, Calif.). The assay comprises two stages: a pre-treatment phase followed by a treatment phase. Compounds may be tested as follows: For the pre-treatment phase, 50 μL of 3× concentration of test compound in HBSS is added to cells containing 100 μL of dye loading media to achieve a final concentration of 1× test compound. For the treatment phase, at a set interval after pre-treatment (1-30 minutes), 50 μl, of 1× test compound plus 4× agonist solution is added, resulting in a final concentration of 1× compound and 1× agonist. […] Responses are measured as (peak fluorescence after agonist addition) minus (baseline fluorescence prior to treatment). Percent inhibition is calculated as follows: […]
(§4) IC50 values are determined by analyzing dose response data in a 4 parameter logistic fit using GraphPad Prizm.

Another assay addresses T2, P2X2/3 (Homo sapiens, UniProt P56373+Q9UBL9).
T2 construct: expressed in transfected cells; host or cells: cell line stably expressing P2X2, stably transfected with P2X3 (e.g. HEK293 or 1321N1)
T2 sequence (Q9UBL9 1-471): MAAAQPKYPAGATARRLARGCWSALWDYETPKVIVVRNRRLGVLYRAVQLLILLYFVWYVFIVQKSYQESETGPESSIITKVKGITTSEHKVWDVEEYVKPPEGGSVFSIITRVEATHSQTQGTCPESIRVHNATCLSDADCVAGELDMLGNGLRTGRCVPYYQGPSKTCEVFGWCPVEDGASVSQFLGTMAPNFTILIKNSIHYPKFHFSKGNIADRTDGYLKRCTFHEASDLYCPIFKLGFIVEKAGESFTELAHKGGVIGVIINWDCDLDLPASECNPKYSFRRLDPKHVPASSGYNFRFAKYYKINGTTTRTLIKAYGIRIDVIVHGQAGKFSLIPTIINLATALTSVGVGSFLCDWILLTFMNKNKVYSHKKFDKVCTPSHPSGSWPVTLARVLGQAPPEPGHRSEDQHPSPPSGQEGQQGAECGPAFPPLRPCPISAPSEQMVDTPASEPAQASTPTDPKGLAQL
T2 sequence (P56373 1-397): T1 sequence (P56373 1-397)
Kind of assay: Calcium uptake assay (P2X antagonist assay, inhibition of agonist-induced calcium influx), P2X2/3. The format is cell-based. The conditions noted are these: inhibition of agonist-induced calcium influx in cells expressing the receptor.
Text: as §1, §2, §3, §4

Molecules are shown by their SMILES.

Turning to `Cc1ccc(N2CCc3ncnc(NCc4ccccn4)c3C2)c(C#N)c1` [Compound 29, 5-Methyl-2-{4-[(pyridin-2-ylmethyl)-amino]-7,8-dihydro-5H-pyrido[4,3-d]pyrimidin-6-yl}-benzonitrile], the IC50 on P2X3 stood at 196 nM; at P2X2/3, 1670 nM.
For `Cc1ccc(N2CCc3ncnc(NCc4ccc(C5CC5)cn4)c3C2)c(C#N)c1` [Compound 30, 2-{4-[(5-Cyclopropyl-pyridin-2-ylmethyl)-amino]-7,8-dihydro-5H-pyrido[4,3-d]pyrimidin-6-yl}-5-methyl-benzonitrile], the concentration for half-maximal inhibition (IC50) at P2X3 was 236 nM; on P2X2/3 it was 377 nM.
Taken in the same sequence, the figures for `Cc1ccc(N2CCc3ncnc(NCc4ncc(Cl)cc4Cl)c3C2)c(C#N)c1` [Compound 32, 2-{-4-[(3,5-Dichloro-pyridin-2-ylmethyl)-amino]-7,8-dihydro-5H-pyrido[4,3-d]pyrimidin-6-yl}-5-methyl-benzonitrile] were 41 nM and 50 nM.
In the same order, the values of `CCc1ccc(CNc2ncnc3c2CN(c2ccc(C)cc2C#N)CC3)cn1` [Compound 33, 2-{4-[(6-Ethyl-pyridin-3-ylmethyl)-amino]-7,8-dihydro-5H-pyrido[4,3-d]pyrimidin-6-yl}-5-methyl-benzonitrile] are 38 nM and 127 nM.
Taken in the same sequence, the figures for `COc1ccc([C@@H](CCO)Nc2ncnc3c2CN(c2ccc(Cl)cc2C#N)CC3)cn1` [Compound 34, 5-Chloro-2-{4-[(R)-3-hydroxy-1-(6-methoxy-pyridin-3-yl)-propylamino]-7,8-dihydro-5H-pyrido[4,3-d]pyrimidin-6-yl}-benzonitrile] were 33 nM and 105 nM.
Consider `COc1ccc([C@@H](CO)Nc2ncnc3c2CN(c2ccc(Cl)cc2C#N)CC3)cn1` [Compound 35, 5-Chloro-2-{4-[(S)-2-hydroxy-1-(6-methoxy-pyridin-3-yl)-ethylamino]-7,8-dihydro-5H-pyrido[4,3-d]pyrimidin-6-yl}-benzonitrile], for which the values for the half-maximal inhibitory concentration (IC50) on P2X3 and on P2X2/3 were 23 nM and 200 nM, respectively.
With `Cc1ccc(N2CCc3ncnc(NCc4cccc(C#N)c4)c3C2)c(C#N)c1` [Compound 36, 2-[4-(3-Cyano-benzylamino)-7,8-dihydro-5H-pyrido[4,3-d]pyrimidin-6-yl]-5-methyl-benzonitrile], the IC50 came to 183 nM at P2X3 and 1090 nM at P2X2/3.
Taken in the same sequence, the figures for `Cc1ccc(N2CCc3ncnc(NCc4ccc5ocnc5c4)c3C2)c(C#N)c1` [Compound 38, 2-{4-[(Benzooxazol-5-ylmethyl)-amino]-7,8-dihydro-5H-pyrido[4,3-d]pyrimidin-6-yl}-5-methyl-benzonitrile] were 15 nM and 45 nM.
In the same order, the values of `Cc1ccc(N2CCc3ncnc(NCc4ccc(C)c(-n5cncn5)c4)c3C2)c(C#N)c1` [Compound 40, 5-Methyl-2-{4-(4-methyl-3-[1,2,4]triazol-1-yl-benzylamino)-7,8-dihydro-5H-pyrido[4,3-d]pyrimidin-6-yl}-benzonitrile] are 21 nM and 92 nM.
With `N#Cc1cc(Cl)ccc1N1CCc2ncnc(NCc3ccn4ccnc4c3)c2C1` [Compound 44, 5-Chloro-2-{4-[(imidazo[1,2-a]pyridin-7-ylmethyl)-amino]-7,8-dihydro-5H-pyrido[4,3-d]pyrimidin-6-yl}-benzonitrile], the IC50 amounted to 122 nM on P2X3 and 753 nM on P2X2/3.
In the same order, the values of `Cc1ccc(N2CCc3ncnc(N[C@H](CO)c4ccc(C(F)(F)F)nc4)c3C2)c(C#N)c1` [Compound 46, 2-{4-[(S)-2-Hydroxy-1-(6-trifluoromethyl-pyridin-3-yl)-ethylamino]-7,8-dihydro-5H-pyrido[4,3-d]pyrimidin-6-yl}-5-methyl-benzonitrile] are 21 nM and 71 nM.
Consider `N#Cc1cc(Cl)ccc1N1CCc2ncnc(N[C@H](CO)c3ccc(C(F)(F)F)nc3)c2C1` [Compound 47, 5-Chloro-2-{4-[(S)-2-hydroxy-1-(6-trifluoromethyl-pyridin-3-yl)-ethylamino]-7,8-dihydro-5H-pyrido[4,3-d]pyrimidin-6-yl}-benzonitrile], for which the IC50 on P2X3 amounted to 54 nM; at P2X2/3, 671 nM.
Taken in the same sequence, the figures for `Cc1ccc(N2CCc3ncnc(NCc4ccc(C)c(F)c4)c3C2)c(C#N)c1` [Compound 48, 2-[4-(3-Fluoro-4-methyl-benzylamino)-7,8-dihydro-5H-pyrido[4,3-d]pyrimidin-6-yl]-5-methyl-benzonitrile] were 89 nM and 124 nM.
In the same order, the values of `CSc1cc(CNc2ncnc3c2CN(c2ccc(C)cc2C#N)CC3)ccc1C` [Compound 49, 5-Methyl-2-[4-(4-methyl-3-methylsulfanyl-benzylamino)-7,8-dihydro-5H-pyrido[4,3-d]pyrimidin-6-yl]-benzonitrile] are 474 nM and 925 nM.
Taken in the same sequence, the figures for `Cc1ccc(N2CCc3ncnc(NCc4ccc(Cl)c(-n5cnnc5)c4)c3C2)c(C#N)c1` [Compound 50, 2-[4-(4-Chloro-3-[1,2,4]triazol-4-yl-benzylamino)-7,8-dihydro-5H-pyrido[4,3-d]pyrimidin-6-yl]-5-methyl-benzonitrile] were 31 nM and 63 nM.
Take `N#Cc1cc(Cl)ccc1N1CCc2ncnc(NCc3cccc(-n4cnnc4)c3)c2C1` [Compound 51, 5-Chloro-2-[4-(3-[1,2,4]triazol-4-yl-benzylamino)-7,8-dihydro-5H-pyrido[4,3-d]pyrimidin-6-yl]-benzonitrile]: the IC50 is 284 nM on P2X3 and 1020 nM at P2X2/3.
In the same order, the values of `N#Cc1cc(Cl)ccc1N1CCc2ncnc(NCc3ccc(Cl)c(-n4cnnc4)c3)c2C1` [Compound 52, 5-Chloro-2-[4-(4-chloro-3-[1,2,4]triazol-4-yl-benzylamino)-7,8-dihydro-5H-pyrido[4,3-d]pyrimidin-6-yl]-benzonitrile] are 41 nM and 286 nM.
Taken in the same sequence, the figures for `Cc1ccc(N2CCc3ncnc(NCc4cccc(-n5cnnc5)c4)c3C2)c(C#N)c1` [Compound 53, 5-Methyl-2-[4-(3-[1,2,4]triazol-4-yl-benzylamino)-7,8-dihydro-5H-pyrido[4,3-d]pyrimidin-6-yl]-benzonitrile] were 65 nM and 324 nM.
In the same order, the values of `Cc1ccc(N2CCc3ncnc(NCc4ccc(C)c(I)c4)c3C2)c(C#N)c1` [Compound 55, 2-[4-(3-Iodo-4-methyl-benzylamino)-7,8-dihydro-5H-pyrido[4,3-d]pyrimidin-6-yl]-5-methyl-benzonitrile] are 512 nM and 1300 nM.
Consider `Cc1ccc(N2CCc3ncnc(NCc4ccc(C)c(C#N)c4)c3C2)c(C#N)c1` [Compound 56], for which the IC50 at P2X3 worked out at 63 nM; at P2X2/3, 82 nM.
Taken in the same sequence, the figures for `Cc1ccc(N2CCc3ncnc(NCc4ccc(C)c(S(C)(=O)=O)c4)c3C2)c(C#N)c1` [Compound 59, 2-{4-(3-Methanesulfonyl-4-methyl-benzylamino)-7,8-dihydro-5H-pyrido[4,3-d]pyrimidin-6-yl}-5-methyl-benzonitrile] were 16 nM and 55 nM.

Usually IC50 stands for the concentration that inhibits the measured activity by half.
